Test results from patent publication US20050255595A1, “Genetically modified non-human mammal cells, procedure for their production and use in toxicity tests” (priority 2002, published 2005).
Like-named read-outs stand apart in the source and are kept apart here.

Tests used:
[1] = system: primary hepatocytes (PHGH); experiment: cellular survival of PHGH, Trypan Blue exclusion; format: cell-based, mice; set-up: % cellular survival, PHGH 1 + 24 h / % cellular survival, PHGH 5 + 24 / % vitality of the cells, PHGH 1 + 24 h / % vitality of the cells, PHGH 5 + 24 h: unit of the concentration uncertain; details: for % vitality of the cells, PHGH 1 + 24 h / % cellular survival, PHGH 1 + 24 h: 1 h treatment + 24 h normal medium; for % vitality of the cells, PHGH 5 + 24 h / % cellular survival, PHGH 5 + 24: 5 h treatment + 24 h normal medium
From the text: (§1) This different behaviour is explained by the greater sensitivity to the toxicant of the PHGH with respect to the MMH/GH5 as shown by analysis of the cellular vitality performed with the Trypan Blue method (FIG. 1, graph B). […] Therefore the greater resistance of the cells MMH/GH/5 to the toxicants constitutes another evident advantage as it permits the exclusion of false negatives in which the non-release of hGH, due to cellular death, is interpreted as non-toxicity of the compound. When the supernatant is collected after 5 hours of treatment followed by 24 hours of culture with normal medium (FIG. 1 graph C) the PHGHs respond, at the lowest concentrations of the two toxicants, with high levels of secretion of hGH and, at the highest concentrations, with low levels of secretion of hGH (lower cellular survival, graph D).
(§2) In table 3 the cellular survival percentage was determined with the Trypan Blue exclusion method. […]
(§3) For treatment, the two types of cells were treated with different concentrations of the compounds for 1 or 5 hours and then with normal medium for a further 24 hours. The effects of the treatment were assessed as described previously for the inorganic toxicants.

MMH/GH5 cells = experiment: cellular survival of MMH/GH5, Trypan Blue exclusion; format: cell-based, mice; set-up: % cellular survival, MMHGH/5 1 + 24 h / % cellular survival, MMHGH/5 5 + 24 / % vitality of the cells, MMH/GH 1 + 24 h / % vitality of the cells, MMH/GH 5 + 24 h: unit of the concentration uncertain; details: for % vitality of the cells, MMH/GH 1 + 24 h / % cellular survival, MMHGH/5 1 + 24 h: 1 h treatment + 24 h normal medium; for % vitality of the cells, MMH/GH 5 + 24 h / % cellular survival, MMHGH/5 5 + 24: 5 h treatment + 24 h normal medium
From the text: as §1, §2, §3

MMH/GH5 cells (Clone 5) = system: MMH/GH5 cells (Clone 5); set-up: hGH secreted, MMHGH/5 1 + 24 h / hGH secreted, MMHGH/5 5 + 24 / hGH secreted, MMHGH/5 1 h / hGH secreted, MMHGH/5 5 h: dose or concentration left out as unconfirmed
[2] = system: single transgenic HPS70/hGH primary hepatocytes (PHGH); experiment: toxicity test, hGH secretion by primary transgenic hepatocytes (PHGH); format: cell-based, mice; set-up: hGH secreted, PHGH 1 h / hGH secreted, PHGH 5 h / hGH secreted, PHGH 1 + 24 h / hGH secreted, PHGH 5 + 24: unit of the concentration uncertain
From the text: On the basis of the results illustrated, for the further analyses, clone no. […] The response to the toxic stress of the clone MMH/GH5 was then compared with the one obtained in single transgenic HPS70/hGH primary hepatocytes (PHGH). A representative sample of the cell line derived from said clone MMH/GH5 was deposited in accordance with and for the purposes of the Treaty of Budapest on the international recognition of deposit of micro-organisms for the purposes of the patents procedure with the AID “Centro di Biotecnologie Avanzate (CBA), Interlab Cell Line Collection (ICLC)” Servizio Biotecnologie, Largo R. Benzi, 10, 16132 Genova, Italy, on Jul. 30, 2002, where it was given identification number PD 02007.
as §2, §3

[3] = 5 (unit uncertain), Trypan Blue
[4] = 50 (unit uncertain), Trypan Blue (Table 4)
[5] = 0.5 (unit uncertain), Trypan Blue
[6] = 1 (unit uncertain), Trypan Blue
[7] = 25 (unit uncertain), Trypan Blue
[8] = 50 (unit uncertain), Trypan Blue (Table 3)

Structure (SMILES): O=[N+]([O-])c1ccc(Cl)c([N+](=O)[O-])c1 [CDNB, 1-Chloro-2,4-DiNitro-Benzene]
- % vitality of the cells, PHGH 1 + 24 h [1, 3]: 80%
- % vitality of the cells, PHGH 5 + 24 h [1, 3]: 40%
- % vitality of the cells, PHGH 1 + 24 h [1, 4]: 5%
- % vitality of the cells, PHGH 5 + 24 h [1, 4]: 5%
- % vitality of the cells, MMH/GH 1 + 24 h (MMH/GH5 cells; [3]): 80%
- % vitality of the cells, MMH/GH 5 + 24 h (MMH/GH5 cells; [3]): 60%
- % vitality of the cells, MMH/GH 1 + 24 h (MMH/GH5 cells; [4]): 70%
- % vitality of the cells, MMH/GH 5 + 24 h (MMH/GH5 cells; [4]): 20%
- toxicity on MMH/GH5 cells compared with PHGHs (MMH/GH5 cells; words, data in table 4): less toxic
- secretion of the hGH from the MMH/GH5 cells (MMH/GH5 cells (Clone 5); all the conditions tested): considerable secretion

Structure (SMILES): O=C1C=CCC1 [2-Cycl, 2-cyclopentene-1-one]
- % cellular survival, PHGH 1 + 24 h [1, 5]: 90%
- % cellular survival, PHGH 5 + 24 [1, 5]: 90%
- % cellular survival, PHGH 1 + 24 h [1, 6]: 80%
- % cellular survival, PHGH 5 + 24 [1, 6]: 60%
- % cellular survival, MMHGH/5 1 + 24 h (MMH/GH5 cells; [5]): 90%
- % cellular survival, MMHGH/5 5 + 24 (MMH/GH5 cells; [5]): 90%
- % cellular survival, MMHGH/5 1 + 24 h (MMH/GH5 cells; [6]): 90%
- % cellular survival, MMHGH/5 5 + 24 (MMH/GH5 cells; [6]): 90%
- response (hGH secretion) in MMH/GH5 (MMH/GH5 cells (Clone 5); words, Table 3): rapid response

Structure (SMILES): O=[As][O-].[Na+] [NaAsO2]
- hGH secreted, 5 + 24 h (MMH/GH cells, Clone 4): 0
- hGH secreted, 5 h (MMH/GH cells, Clone 4): 0
- hGH secreted, 5 + 24 h (MMH/GH cells, Clone 11): 0

Structure (SMILES): CCCCC[C@H](O)/C=C/[C@H]1C=CC(=O)[C@@H]1CCCCCCC(=O)O [PGA1]
- hGH secreted, PHGH 1 h ([2]; 25 (unit uncertain), 1 h treatment): 9 pg hGH/10^6 cells
- hGH secreted, PHGH 1 + 24 h ([2]; 25 (unit uncertain), 1 h treatment + 24 h normal medium): 13 pg hGH/10^6 cells
- hGH secreted, PHGH 5 h ([2]; 25 (unit uncertain), 5 h treatment): 16 pg hGH/10^6 cells
- hGH secreted, PHGH 5 + 24 ([2]; 25 (unit uncertain), 5 h treatment + 24 h normal medium): 69 pg hGH/10^6 cells
- hGH secreted, PHGH 1 h ([2]; 50 (unit uncertain), 1 h treatment (Table 3)): 7 pg hGH/10^6 cells
- hGH secreted, PHGH 1 + 24 h ([2]; 50 (unit uncertain), 1 h treatment + 24 h normal medium (Table 3)): 4 pg hGH/10^6 cells
- hGH secreted, PHGH 5 h ([2]; 50 (unit uncertain), 5 h treatment (Table 3)): 17 pg hGH/10^6 cells
- hGH secreted, PHGH 5 + 24 ([2]; 50 (unit uncertain), 5 h treatment + 24 h normal medium (Table 3)): 522 pg hGH/10^6 cells
- % cellular survival, PHGH 1 + 24 h [1, 7]: 95%
- % cellular survival, PHGH 5 + 24 [1, 7]: 90%
- % cellular survival, PHGH 1 + 24 h [1, 8]: 90%
- % cellular survival, PHGH 5 + 24 [1, 8]: 70%
- % cellular survival, MMHGH/5 1 + 24 h (MMH/GH5 cells; [7]): 90%
- % cellular survival, MMHGH/5 5 + 24 (MMH/GH5 cells; [7]): 90%
- % cellular survival, MMHGH/5 1 + 24 h (MMH/GH5 cells; [8]): 90%
- % cellular survival, MMHGH/5 5 + 24 (MMH/GH5 cells; [8]): 90%
- hGH secreted, MMHGH/5 1 h (MMH/GH5 cells (Clone 5); 25, 1 h treatment): 10 pg hGH/10^6 cells
- hGH secreted, MMHGH/5 1 + 24 h (MMH/GH5 cells (Clone 5); 25, 1 h treatment + 24 h normal medium): 0 pg hGH/10^6 cells
- hGH secreted, MMHGH/5 5 h (MMH/GH5 cells (Clone 5); 25, 5 h treatment): 27 pg hGH/10^6 cells
- hGH secreted, MMHGH/5 5 + 24 (MMH/GH5 cells (Clone 5); 25, 5 h treatment + 24 h normal medium): 2 pg hGH/10^6 cells
- hGH secreted, MMHGH/5 1 h (MMH/GH5 cells (Clone 5); 50, 1 h treatment (Table 3)): 94 pg hGH/10^6 cells
- hGH secreted, MMHGH/5 1 + 24 h (MMH/GH5 cells (Clone 5); 50, 1 h treatment + 24 h normal medium (Table 3)): 116 pg hGH/10^6 cells
- hGH secreted, MMHGH/5 5 h (MMH/GH5 cells (Clone 5); 50, 5 h treatment (Table 3)): 47 pg hGH/10^6 cells
- hGH secreted, MMHGH/5 5 + 24 (MMH/GH5 cells (Clone 5); 50, 5 h treatment + 24 h normal medium (Table 3)): 9 pg hGH/10^6 cells
